Experimental data: patent publication US12637434B2, “Salt of arylaminoquinazoline-containing compound, and preparation method therefor and use thereof” (priority 2020, dated 2026)
≈ marks a conversion by molar mass, not a printed value. Entries after “also recorded” stand apart in the source; their conditions may differ. Where two headings read alike, the source gives them in different places.

What was measured:
[1] = Solubility test in biological vehicles (FaSSIF, FeSSIF, SGF); format: physicochemical; details: for solubility at 0.5 h: 37 °C, thermodynamic from solid
Experimental: 9. Determination of Solubility in Biological Vehicles
The preparation procedures of the biological vehicles (SGF, FeSSIF and FaSSIF) used for solubility determination were shown in the following table:
Test method: a sample to be tested was added to a biological vehicles and prepared into a solution or suspension having a target concentration of 10 mg/mL. The resulting solution or suspension was shaken continuously at 200 rpm at 37° C. The suspension was filtered at 0.5 hour and the concentration of the compound in the filtrate was determined by using HPLC.
Solubility Test in Biological Vehicles
The samples of Example 1 and Example 10 (20 mg each) were weighed, and different biological vehicles (2 mL) were added threreto to perform the solubility test, and the results were shown in Table 11.

[2] = Solid stability test; format: physicochemical; details: 40° C./75% RH (open), 7 days
Experimental: The dihydrochloride salt of Example 1 and the dihydrochloride salt tetrahydrate of Example 2 and Example 10 were all placed under the condition of 40° C./75% RH (open) for 7 days to perform the stability test.

[3] = Long-term stability test; format: physicochemical; details: for Purity (5 months) / Appearance / Crystalline form: 40 ± 2° C., 75% ± 5% RH, 5 months; for Appearance / Crystalline form: sealed with polyethylene film; for Purity (0 month): start of long-term stability test
Experimental: An appropriate amount of the salt samples obtained in Examples 1 to 4 and 9 were sealed with a polyethylene film and placed for 5 months under the conditions of 40±2° C. and 75%±5% RH, and a long-term test was carried out.

[4] = Solubility test in water and pH 2.0 buffer (HPLC); format: physicochemical; details: for solubility in pH 2.0 buffer compared with Preparation Example 1 (in words): acidic conditions; for solubility: 25 °C, thermodynamic from solid; for Solubility (25° C., mg/mL) Medium: pH 2.0 buffer / Solubility (25° C., mg/mL) Medium: Water / solubility: 25° C.
Experimental: 2. Solubility (Water and pH 2.0 Buffer)
Detection Instrument: Agilent 1260 High Performance Liquid Chromatograph
Detection medium: purified water, pH 2.0 phosphoric acid-disodium hydrogen phosphate buffer
Preparation of control solution: it was taken that an appropriate amount of the referen ce substance of the compound of Formula 1, accurately weighed, dissolved completely by solven t and diluted to 100 μg/mL. 10 μL of the prepared solution was accurately measured and the conte nts of Compound 1 were determined by HPLC.
The salts obtained in Preparation Example 1, Examples 1 to 4 and 9 and Comparative Examples 1 to 2 were tested for solubility in water and pH 2.0 buffer.

[5] = system: human melanoma A375; experiment: Pharmacodynamic experiment of human melanoma A375 nude mice xenograft tumor model; format: in vivo, nu/nu female nude mice; details: for Animal number (Survival/total) / Tumor weight / Inhibition rate %: once a day, 20 days; for Tumor weight / Inhibition rate %: Day 21; for Inhibition rate %: tumor weight
Experimental: Pharmacodynamic Experiment of Human Melanoma A375 Nude Mice Xenograft Tumor Model
A well-growing human melanoma A375 cell suspension was inoculated into the subcutaneous tissue of the forelimb axilla of nu/nu female nude mice in an inoculation volume of 0.1 mL containing approximately 1×10^7 tumor cells. When the tumor volume grew to 100 mm^3 or more, the mice with good tumor growth were selected, and the animals were evenly divided into 5 groups according to the tumor volume: a Vehicle group, a Vandetanib 12.5 mg/kg group, a Vandetanib 25 mg/kg group, an Example 1 sample 12.5 mg/kg group, and an Example 1 sample 25 mg/kg group, and there were 6 animals in each group. The Vehicle group was orally administered with distilled water, and the remaining groups were orally administered with the corresponding tested drugs in a dosing volume of 20 mL/kg, once a day, and continuously administered for 20 days. The animals were housed normally after administration, and the anti-tumor effect of the tested drugs was dynamically observed by using the method of measuring the diameter of the tumors. At the end of the experiment (Day 21), the animals were sacrificed, and the tumors, were stripped and weighed, and the tumor inhibition rate was calculated.

[6] = Mechanical stability test; format: physicochemical; details: mechanical grinding for 5 minutes
Experimental: Mechanical Stability Test
An appropriate amount of the dihydrochloride salt of Example 1 was subjected to mechanical grinding for 5 minutes, and X-ray powder diffraction was performed.

[7] = Solubility test in conventional organic solvents; format: physicochemical
Experimental: Solubility Test in Conventional Organic Solvents
The solubility test of the sample of Preparation Example 1 in different organic solvents was carried out by using the method in the Pharmacopoeia (Volume II, the general examples), and the solubility of the sample of Example 1 in different organic solvents was estimated using the gravimetric method, and the results were shown in Table 15.

[8] = Slurrying in organic solvents, crystalline form by XRPD; format: physicochemical; details: ~15 mg in 0.5 mL of solvents of Table 15, room temperature and 50° C.
Experimental: Note: The sample of Example 1 (˜15 mg) was added to 0.5 mL of the different solvents listed in Table 15, and slurried at room temperature and 50° C., and the filtered sample was subjected to X-ray powder diffraction. The crystalline form was consistent with that of the dihydrochloride salt obtained in Example 1.

[9] = 0.5 h, 37° C., 200 rpm, target concentration 10 mg/mL, unit not given
[10] = pH 2.0 phosphoric acid-disodium hydrogen phosphate buffer
[11] = purified water, water, purified water, read-out: Solubility (25° C., mg/mL) Medium: Water
[12] = Preparation Example 1 by Pharmacopoeia method, Example 1 estimated by gravimetric method

COc1cc2c(Nc3ccc(Br)cc3F)ncnc2cc1OCCCCN(C)C [Example 10]
Solubility in FeSSIF (pH 5.0) ([1]; 0.5 h, 37° C., 200 rpm, target concentration 10 mg/mL, unit inferred): 7.3 mg/mL | Solubility in FaSSIF (pH 6.5) [1, 9]: solution, >10 | Solubility in SGF (pH 1.2) [1, 9]: solution, >10 | solubility in biological vehicles with different pH (in words) ([1]; FaSSIF, FeSSIF, SGF): good solubility | Crystalline form [2]: Unchanged | Purity [2]: 99.74%

COc1cc2c(Nc3ccc(Br)cc3F)ncnc2cc1OCCCCN(C)C [Example 2]
Purity (5 months) [3]: 98.56% | Appearance [3]: White powder | Crystalline form [3]: Unchanged | Purity (0 month) [3]: 98.55% | Crystalline form [2]: Unchanged | Purity [2]: 98.54% | Solubility (25° C., mg/mL) Medium: pH 2.0 buffer [4, 10]: 7.69 mg/mL | Solubility (25° C., mg/mL) Medium: Water ([4]; purified water): 34.32 mg/mL (≈ 74.1 mM) | solubility in pH 2.0 buffer compared with Preparation Example 1 (in words) [4]: slightly lower

COc1cc2c(Nc3ccc(Br)cc3F)ncnc2cc1OCCCCN(C)C.O=C(O)/C=C\C(=O)O [Example 4]
Purity (5 months) [3]: 96.41% | Appearance [3]: White powder | Crystalline form [3]: Unchanged | Purity (0 month) [3]: 96.72% | solubility in pH 2.0 buffer compared with Preparation Example 1 (in words) [4]: slightly better | solubility ([4]; pH 2.0 phosphoric acid-disodium hydrogen phosphate buffer, pH 2, aqueous buffer, pH 2.0 phosphoric acid-disodium hydrogen phosphate buffer, read-out: Solubility (25° C., mg/mL) Medium: pH 2.0 buffer): 12.5 mg/mL | solubility [4, 11]: 13.7 mg/mL

COc1cc2c(Nc3ccc(Br)cc3F)ncnc2cc1OCCCCN(C)C [Example 1]
Animal number (Survival/total) ([5]; 12.5 mg/kg oral): 6/6 | Tumor weight ([5]; 12.5 mg/kg oral): 1.77 ± 0.85 g | Inhibition rate % ([5]; 12.5 mg/kg oral): 47.99% | Animal number (Survival/total) ([5]; 25 mg/kg oral): 6/6 | Tumor weight ([5]; 25 mg/kg oral): 1.34 ± 1.15 g | Inhibition rate % ([5]; 25 mg/kg oral): 60.52% | effect on growth of tumors (in words) ([5]; 12.5 and 25 mg/kg oral, compared with the Vehicle group): significantly inhibit the growth of tumors | solubility at 0.5 h ([1]; FaSSIF, pH 6.5, fassif, 0.5 h, 37° C., 200 rpm, target concentration 10 mg/mL, unit inferred, read-out: Solubility in FaSSIF (pH 6.5)): > 10 mg/mL | solubility in biological vehicles with different pH (in words) ([1]; FaSSIF, FeSSIF, SGF): good solubility | solubility at 0.5 h ([1]; FeSSIF, pH 5, fessif, 0.5 h, 37° C., 200 rpm, target concentration 10 mg/mL, unit inferred, read-out: Solubility in FeSSIF (pH 5.0)): 5.07 mg/mL (≈ 10.9 mM) | solubility at 0.5 h ([1]; SGF, pH 1.2, simulated gastric fluid, 0.5 h, 37° C., 200 rpm, target concentration 10 mg/mL, unit inferred, read-out: Solubility in SGF (pH 1.2)): > 10 mg/mL | crystalline form after mechanical grinding (XRPD) [6]: not changed | Purity (5 months) [3]: 99.60% | Appearance [3]: White powder | Crystalline form [3]: Unchanged | Purity (0 month) [3]: 99.62% | Solubility (mg/mL) in Acetone [7, 12]: <0.46 mg/mL | Solubility (mg/mL) in Acetonitrile [7, 12]: <0.38 mg/mL | Solubility (mg/mL) in Dichloromethane [7, 12]: <0.44 mg/mL | Solubility (mg/mL) in Ethanol [7, 12]: ~0.55 mg/mL (≈ 1.19 mM) | Solubility (mg/mL) in Ethyl acetate [7, 12]: <0.38 mg/mL | Solubility (mg/mL) in Isopropanol [7, 12]: <0.40 mg/mL | Solubility (mg/mL) in Tetrahydrofuran [7, 12]: <0.37 mg/mL | solubility in the other seven commonly used organic solvents (in words) ([7]; all solvents of Table 15 except methanol): very poor solubility | Crystalline form [2]: Unchanged | Purity [2]: 99.64% | crystalline form after slurrying in conventional organic solvents (XRPD) [8]: consistent; also recorded: stable | Solubility (25° C., mg/mL) Medium: pH 2.0 buffer [4, 10]: 14.29 mg/mL | Solubility (25° C., mg/mL) Medium: Water ([4]; purified water): 40.07 mg/mL (≈ 86.5 mM) | solubility in pH 2.0 buffer compared with Preparation Example 1 (in words) [4]: slightly better | water-solubility (in words) ([4]; water, listed as dihydrochloride salt): best of all samples

COc1cc2c(Nc3ccc(Br)cc3F)ncnc2cc1OCCCCN(C)C [Preparation Example 1, 4-(4-bromo-2-fluoroanilino)-6-methoxy-7-[(4-N,N-dimethylamino)butoxy]quinazoline]
Solubility (mg/mL) in Acetone [7, 12]: 44.04 mg/mL (≈ 95 mM) | Solubility (mg/mL) in Acetonitrile [7, 12]: 10.66 mg/mL (≈ 23 mM) | Solubility (mg/mL) in Dichloromethane [7, 12]: 30.49 mg/mL (≈ 65.8 mM) | Solubility (mg/mL) in Ethanol [7, 12]: 205.2 mg/mL (≈ 443 mM) | Solubility (mg/mL) in Ethyl acetate [7, 12]: 30.38 mg/mL (≈ 65.6 mM) | Solubility (mg/mL) in Isopropanol [7, 12]: 51.05 mg/mL (≈ 110 mM) | Solubility (mg/mL) in Methanol ([7]; Methanol, Preparation Example 1 by Pharmacopoeia method, Example 1 estimated by gravimetric method): >60 mg/mL | Solubility (mg/mL) in Tetrahydrofuran [7, 12]: 201.4 mg/mL (≈ 435 mM) | solubility ([7]; organic solvent or mixture, thermodynamic from solid, read-out: solubility in various conventional organic solvents (all)): > 10 mg/mL | Solubility (25° C., mg/mL) Medium: Water ([4]; purified water): 0.036 mg/mL (≈ 0.0777 mM) | water-solubility (in words) ([4]; water): very poor water-solubility

COc1cc2c(Nc3ccc(Br)cc3F)ncnc2cc1OCCCCN(C)C [Comparative Example 2]
Solubility (25° C., mg/mL) Medium: Water ([4]; purified water): Jelly-like, solubility | Solubility (25° C., mg/mL) Medium: Water ([4]; purified water, listed as malate salt): jelly-like

COc1cc2c(Nc3ccc(Br)cc3F)ncnc2cc1OCC1CCN(C)CC1 [Vandetanib, reference compound]
Animal number (Survival/total) ([5]; 12.5 mg/kg oral): 6/6 | Tumor weight ([5]; 12.5 mg/kg oral): 2.89 ± 0.67 g | Inhibition rate % ([5]; 12.5 mg/kg oral): 15.18% | Animal number (Survival/total) ([5]; 25 mg/kg oral): 6/6 | Tumor weight ([5]; 25 mg/kg oral): 1.90 ± 0.93 g | Inhibition rate % ([5]; 25 mg/kg oral): 44.15%

COc1cc2c(Nc3ccc(Br)cc3F)ncnc2cc1OCCCCN(C)C [Comparative Example 1]
Solubility (25° C., mg/mL) Medium: Water ([4]; purified water): Jelly-like, solubility | Solubility (25° C., mg/mL) Medium: Water ([4]; purified water, listed as monohydrochloride salt): jelly-like

COc1cc2c(Nc3ccc(Br)cc3F)ncnc2cc1OCCCCN(C)C [Example 3]
Purity (5 months) [3]: 98.84% | Appearance [3]: White powder | Crystalline form [3]: Unchanged | Purity (0 month) [3]: 98.83% | Solubility (25° C., mg/mL) Medium: pH 2.0 buffer [4, 10]: 5.00 mg/mL | Solubility (25° C., mg/mL) Medium: Water ([4]; purified water): 10.91 mg/mL (≈ 23.5 mM) | solubility in pH 2.0 buffer compared with Preparation Example 1 (in words) [4]: slightly lower

COc1cc2c(Nc3ccc(Br)cc3F)ncnc2cc1OCCCCN(C)C.O=C(O)C(=O)O [Example 9]
Purity (5 months) [3]: 99.34% | Appearance [3]: White powder | Crystalline form [3]: Unchanged | Purity (0 month) [3]: 99.38% | solubility [4, 11]: 2.89 mg/mL
